Source: patent US20250177423A1, “PHOTORESPONSIVE PEPTIDE DELIVERY SYSTEM AND METHOD OF USING THE SAME” (THE UNIVERSITY OF HONG KONG, priority 2023, published 2025)

Key:
[1] = system: laser induced CNV; test: Laser induced CNV mouse model, imageological examination (OCTA, FFA, OCT); assay type: in vivo, C57BL/6 mice; details: i.v. day 3 and 5, AS16 equivalent 2 mg/kg, day 7
Description: Four laser spots were produced on the fundus of mice by 810 nm laser to induce CNV. Specifically, C57BL/6 mice (6-8 w) were anesthetized with 1% pentobarbital sodium (40 mg/kg). Then their pupils were dilated with 0.5% tropicamide eyedrops and received local anesthesia by tetracaine eye drops, followed by carboxymethylcellulose sodium eye drops for prevention of ocular surface dehydration. Each mouse's eyes were applied four laser (six in case of western blot analysis) burns (810 nm wavelength, 140 mW of power, 75 μm of spot size, 75 ms of duration) with OcuLight Infrared Laser System at almost equal distance to the optic nerve head. Afterwards, the mice received chloramphenicol eye drops for infection prevention and rested on heating pad until consciousness. […] On day 3 and day 5 after laser photocoagulation, 2 mg/kg AS16 peptide and quantity equivalent nanoLAMPs were administered intravenously through tail veins. […] On day 7 post CNV induction, FFA (fluorescence fundus angiography) and OCTA (optical coherence tomography angiography) images of each group was collected, and the mice were then euthanized. […] Only the scan that passed through the center of the lesion was used to measure the thickness and length of the CNV lesion, which was analyzed and calculated by using ImageJ software and GraphPad Prism. […]

[2] = system: IL-2 and TNF-α gene expression in Jurkat T cells; test: RT-qPCR of cytokine gene expression in Jurkat T cells co-cultured with MDA-MB-231 cells (PD-L1 blockade); assay type: cell-based; details: Jurkat T cells after co-culture with MDA-MB-231 cells; FM12 released from cFM12 nanoparticles; vs PBS control
Excerpt: FIGS. 13A-F. BODIPY-caged FM12 peptide (cFM12) nanoparticles for photo-triggered PD-L1 blockade. […] (E) Size distribution of nanoparticles. (F) Schematic diagram of cFM12 nanoparticles. (*: p<0.05; **: p<0.01; ***: p<0.001). The data are presented as mean±SEM.
To further explore whether the BODIPY photocage can be utilized to deliver other hydrophilic peptides, a peptide inhibitor (FPNWSLRPMNQM, SEQ ID NO: 2, FM12) targeting programmed death ligand 1 (PD-L1) was conjugated with BODIPY at N-terminus to synthesize BODIPY-caged FM12 (cFM12). The conjugate could also form stable polymeric nanoparticles with the help of PEG3.4K-PLA5K. […] For nanoparticle preparation, in brief, 2 μL of 10 mg/mL cFM12 was mixed with 2 μL of 100 mg/mL PEG3.4K-PLA5K in DMSO solution. […] As shown in FIGS. 13e and 13f, the fabricated nanoparticles had well-dispersed size distribution with diameter around 122 nm and PDI around 0.2.

[3] = system: HUVEC cells; test: Migration assay (trans-well); assay type: cell-based, human; details: without light irradiation; AS16 equivalent 5 μM; 24 h
Description: 200 μL serum-free medium containing 2*10^4 HUVEC cells were seeded in the upper chamber of the trans-well and 600 μL full medium was loaded in the lower chamber. Different drugs were added to the upper chamber. The grouping and treatment method as well as the calculation was consistent with above.
(§1) To verify the anti-angiogenic property of nanoLAMPs in vitro, tube formation assay, migration assay, and wound healing assay were also conducted on HUVECs and the concentration of each group was set equal to nanoLAMPs containing 5 μM AS16 peptide.

[4] = system: HUVEC cells; test: Wound healing assay; assay type: cell-based, human; details: without light irradiation; AS16 5 μM
Description: 5*10^5 HUVEC cells were seeded in the 24-well plates and incubated until they reached 90% confluence. Afterwards, a scratch crossing each well was conducted by 200 μL pipette head. The cells were then be washed with PBS for 2 times to remove the flouting cells and incubated with 1 ml DMEM medium with 5% FBS. The grouping and treatment method was consistent with above. The data of each group was measured and analyzed by Image J and GraphPad Prism, respectively.
as §1

[5] = system: laser induced CNV; test: Laser induced CNV mouse model, isolated tissue (choroidal flat mounts CD31/Ki-67, H&E); assay type: in vivo, C57BL/6 mice; details: without light irradiation; systemic administration
Description: Four laser spots were produced on the fundus of mice by 810 nm laser to induce CNV. Specifically, C57BL/6 mice (6-8 w) were anesthetized with 1% pentobarbital sodium (40 mg/kg). Then their pupils were dilated with 0.5% tropicamide eyedrops and received local anesthesia by tetracaine eye drops, followed by carboxymethylcellulose sodium eye drops for prevention of ocular surface dehydration. Each mouse's eyes were applied four laser (six in case of western blot analysis) burns (810 nm wavelength, 140 mW of power, 75 μm of spot size, 75 ms of duration) with OcuLight Infrared Laser System at almost equal distance to the optic nerve head. Afterwards, the mice received chloramphenicol eye drops for infection prevention and rested on heating pad until consciousness. […] On day 3 and day 5 after laser photocoagulation, 2 mg/kg AS16 peptide and quantity equivalent nanoLAMPs were administered intravenously through tail veins. […] On day 7 post CNV induction, FFA (fluorescence fundus angiography) and OCTA (optical coherence tomography angiography) images of each group was collected, and the mice were then euthanized. […] Flat-mounted RPE-choroid slides were prepared by making 4 cuts from margin to the optic nerve, and the fluorescence images were acquired by confocal microscopy (LMS980 Carl Zeiss). The CNV lesion area was quantitatively analyzed by ImageJ software. […]

COc1ccc(C=CC2=[N+]3C(=C(CO)c4c(C)cc(C=Cc5ccc(OC)cc5)n4[B-]3(C)C)C(C)=C2)cc1 [BODIPY, (3,7-bis((E)-4-methoxystyryl)-1,5,5,9-tetramethyl-5H-4λ4,5λ4-dipyrrolo[1,2-c:2′,1′-f][1,3,2]diazaborinin-10-yl)methanol]
CNV area by OCTA ([1]; with light irradiation (656 nm, 50mw/cm^2, 5 min)): negligible effect

FPNWSLRPMNQM [FM12 peptide]
gene expression level of IL-2 [2]: promote the gene expression level
gene expression level of TNF-α [2]: promote the gene expression level

ATWLPPRAANLLMAAS [AS16 peptide]
HUVEC migration [3]: least migrated HUVECs
wound healing (recovery of scratches) [4]: significant compromised recovery of generated scratches
CNV area by OCTA ([1]; without light exposure): negligible effect
therapeutic effect compared with control group, tests in vivo [5]: negligible therapeutic effect
